The text below walks through data of patent US12285404B2, “Prevention of rosacea inflammation” (The Regents of the University of California, priority 2013, dated 2025).

Test [1] relates to protease that cleaves full length cathelicidin. The note with it: cited from earlier work.
For test [2], the system named is erythematotelangiectatic rosacea subjects. In words: Topical 4% cromolyn sodium vs placebo in erythematotelangiectatic rosacea subjects, clinical evaluation and tape strips. The class given is in vivo, human. The protocol:
(a, b) NHEK cells were co-cultured with 100 μl of supernatant of human cord blood-derived MCs after degranulation by 48/80, or serine buffer. (a) After 24 hrs of co-culture, NHEK cells were washed well and MMP and KLK activities in the cells were obtained, and (b) For the comparison of Cath LL-37 mRNA expression in NHEK cells, 100 nM of 1,25(OH)2VD3 was added to same co-culture. (c) 10 erythematotelangiectatic rosacea subjects were randomized to apply a solution containing either the MC stabilizer (4% cromolyn sodium) (n=5) or placebo (n=5) topically. Tape strips were obtained at the first visit (v1) and last visit (v4) and proteases and protein were separately extracted. Statistics: t-test ***p<0.001 (n=3), *p<0.05 (n=5).
2 mm skin biopsies were taken from the faces of healthy and rosacea subjects, as well as tape strips from the face of erythematotelangiectatic rosacea subjects in the dermatology clinic at the University of California, San Diego. All the procedures involving human subjects were approved by the University of California San Diego Institutional Review Board under the IRB number 071032. Ten randomized adults with erythematotelangiectatic rosacea were applied a water-based solution containing either 4% cromolyn sodium or placebo, topically to their face twice a day, for 8 weeks. A clinical evaluation was performed at each visit. A total six tape strips were obtained from right and left cheek at each of the first visit and the final visit.
To test whether the results were reproducible in humans, 10 randomized adults with erythematotelangiectatic rosacea were used to apply a solution containing either the MC stabilizer (4% cromolyn sodium) or placebo, topically to their face twice daily. Six tape strips were obtained from both right and left cheeks, at the time of first visit (v1) and last visit (v4). After eight week (v4), facial erythema levels decreased in the cromolyn treatment group. MMP, KLK activity and Cath LL-37 protein levels were decreased in the cromolyn treatment group with significant activity in MMP observed (FIG. 5c).

The test system of another test is WT mice. The experiment in a line: MC stabilizer experiment: cromolyn sodium I.P. pretreatment before Cath LL-37 challenge (rosacea mouse model). The class given is in vivo. On the procedure:
WT mice were injected I.P. with vehicle or cromolyn sodium (10 mg/kg, per day) for 4 days. 24 hours after the last injection, the mice were injected intradermally with 50 μl of […] Cath LL-37 or PBS, twice a day for 2 days. Skin biopsies were taken after 72 hours of observation and (a) Mmp-9 and Cxcl2 mRNA expressions were assessed by RT-PCR, (b) MMP-9 activity was assessed by measuring cleavage of a MMP fluorogenic substrate with specific inhibitors, and (c) immunohistochemistry was performed on frozen skin sections using antibodies against MMP-9 and FcεRI. DAPI stain was also used, as indicated. Statistics: one-way and two-way ANOVA **p<0.01 (n=3).
Mast cell deficient (C57BL/6-KitWsh^−/−) mice were bred. KitWsh^−/− mice bearing the W-sash (Wsh) inversion mutation have MC deficiency, but lack anemia and sterility. […] Wild type mice (C57BL/6) were utilized as control. Mice were shaved 24 hrs before intradermal injection with 50 μl of 50 μM or 320 μM of Cath LL-37 or filtered PBS (n=3), twice a day for 2 days and skin biopsies were taken after 72 hours of observation. Total RNA was extracted and purified by RNeasy Mini Kit (QIAGEN science). For the time course observation, skin biopsies of WT and MC deficient mice were taken at 1, 4, and 24 hrs after Cath LL-37 injection.
For the MC stabilizer experiment: Cromolyn sodium (0.3 mg/mouse/day) (Sigma-Aldrich, St Louis, MO) in PBS was injected I.P. into WT mice for 4 days.
Total-MMP activities were determined by following previously reported study (Kanada et al., 2012). To determine MMP-9 activity, MMP-9 specific inhibitor I (Thermo Fisher Scientific, Chicago, IL) was used.
cDNA was synthesized from RNA using the iScript cDNA Synthesis Kit (BioRad, Hercules, CA) according to the manufacturer's protocol. cDNA was normalized using a NanoDrop spectrophotometer (Thermo Fisher Scientific Inc.). Probes from TagMan Gene Expression Assays (Applied Biosystems ABI, Foster City, CA) were used to analyze gene expressions with following to the manufacturer's instructions. Gapdh mRNA was used as an internal control to validate RNA for each sample. mRNA expression was calculated as the relative expression to Gapdh mRNA, and all data are presented as fold change of each control.
Fluorescence immunohistochemistry. Mouse skin frozen sections were fixed with acetone, washed in 1×PBS, blocked with 5% goat serum/1% BSA for 30 minutes, and incubated with anti-MMP-9 polyclonal antibody (ABBIOTEC, San Diego, CA). For FcERI detection, anti-mouse FcERI PE (eBioscience, San Diego, CA) was used. Images were obtained using a Zeiss LSM510 laser scanning confocal microscope coupled with an Axiovert 100 inverted stage microscope.
According to the obtained results, MC proteases and MMP-9, which are released from MCs upon stimulation by Cath LL-37, are central in promoting rosacea-like skin inflammation. […] To test this hypothesis, cromolyn sodium, a very well-known MC stabilizer, was injected I.P. into WT mice (10 mg/kg, per day) every day for 4 days before Cath LL-37 challenge. 24 hours after the last cromolyn sodium injection, mice were injected with 50 μl of […] Cath LL-37 or PBS, twice a day for 2 days. […] In addition, frozen skin sections were stained with anti-MMP-9 and anti-FIERI antibodies for the detection of MCs.

Where [3] appears, read: 4% cromolyn sodium topically twice daily, v1 vs v4.
Where [4] appears, read: cromolyn pretreated, Cath LL-37 challenged WT mice, biopsies after 72 hours, p<0.01.

Take `NCCc1ccc(S(=O)(=O)F)cc1` [AEBSF, 4-(2-aminoethyl)-benzenesulfonylfluoride]: in test [1], the “inhibition of the enzyme in vitro” value was “can inhibit this enzyme in vitro”.
As to aprotinin, in test [1], the “inhibition of the enzyme in vitro” value was “can inhibit this enzyme in vitro”.
As for `O=C(O)c1cc(=O)c2c(OCC(O)COc3cccc4oc(C(=O)O)cc(=O)c34)cccc2o1` [cromolyn, cromolyn sodium], in test [2] (4% cromolyn sodium solution topically to face twice daily, after eight week (v4), n=5), the facial erythema levels entry was “decreased”. Moreover, in test [2] (setting [3]), the “Cath LL-37 protein levels (tape strips)” value was “decreased” and the “KLK activity (tape strips)” value is recorded as “decreased”. The “MMP activity (tape strips)” value in test [2] (4% cromolyn sodium topically twice daily, v1 vs v4, significant, p<0.05 (n=5)) is “decreased”. Besides, the “mast cell (MC) degranulation” value in the test on WT mice (FIG. 4 legend, cromolyn sodium 10 mg/kg per day I.P. for 4 days, WT mice) is recorded as “prevents mast cell (MC) degranulation”. Further, in the test on WT mice (cromolyn pretreated, Cath LL-37 challenged WT mice, MMP fluorogenic substrate with specific inhibitors, p<0.01), the “MMP-9 activity in the tissue” value is “dramatically decreased”. In the test with WT mice (setting [4]), the “Cxcl2 mRNA expression in skin (RT-PCR)” value was “significantly decreased” and the “Mmp-9 mRNA expression in skin (RT-PCR)” value is “significantly decreased”. In the test on WT mice (cromolyn sodium I.P. 10 mg/kg per day for 4 days, then 50 μl of 320 μm Cath LL-37 intradermally twice a day for 2 days, WT mice), the skin inflammation result is reported as “did not develop”.
